Data set [1] can be described thus: Stability in solution in anhydrous DMSO. Format: physicochemical. On the procedure: The prodrug F 373 is stable in solution in anhydrous DMSO. To investigate the cleavability, […] of F 373 solution (5 mg/ml in DMSO) were treated with 180 ml of 0.02 M phosphate buffer pH 7.2 and 10 ml of E. coli β-glucuronidase (Sigma) (330 mg/ml) and the mixture was incubated at 37° C. 25 ml batches were diluted with 225 ml of 0.1 M phosphate buffer pH 3.0 (85%) and acetonitrile (15%) and immediately analyzed with the aid of the following HPLC system.

In data set [2] the test system is LoVo cells. Description: Cytotoxicity on LoVo tumor cells in the presence and absence of β-glucuronidase (MTT). Format: cell-based.

pIC50: −log10 of the molar value. Read-outs that look alike come from different tables or passages of the source.

With `CN(C(=O)Oc1ccc(N(CCCl)CCCl)cc1)c1cc([N+](=O)[O-])ccc1O[C@@H]1O[C@H](C(=O)O)[C@@H](O)[C@H](O)[C@H]1O` [F 373, 2-[N-Methyl-N-[4-(N,N'-bis(2-chloroethyl)amino)phenyloxycarbonyl]-amino]-4-nitrophenyl-β-D-glucuronic acid], the stability in solution result in data set [1] is “stable”. For the same molecule, the pIC50 in data set [2] (read-out: IC50 with β-gluc.) was 5.20; in data set [2] (read-out: IC50 without β-gluc.) it was below 3.30.
Consider `CN(C(=O)OCCN(CCO)c1nc(N2CCCCC2)c2nc(N(CCO)CCO)nc(N3CCCCC3)c2n1)c1cc([N+](=O)[O-])ccc1O[C@@H]1O[C@H](C(=O)O)[C@@H](O)[C@H](O)[C@H]1O` [F 392], for which the pIC50 is 4.31 in data set [2] (Homo sapiens, LoVo cells, 65 h, with β-glucuronidase (50 mg/mil final concentration), read-out: IC50 with β-gluc.) and below 3.40 in data set [2] (Homo sapiens, LoVo cells, 65 h, without β-glucuronidase, read-out: IC50 without β-gluc.).
With `C=C[C@H]1C[N@@]2CC[C@H]1C[C@H]2[C@H](O)c1ccnc2ccc(OC)cc12` [quinine, reference compound], the pIC50 in data set [2] (Homo sapiens, LoVo, read-out: IC50 of the toxic compound tested alone) was 3.99.
Turning to `C=CC1CN2CCC1CC2C(OC(=O)N(C)c1cc([N+](=O)[O-])ccc1OC1OC(C(=O)O)C(O)C(O)C1O)c1ccnc2ccc(OC)cc12` (stereo not drawn) [F 391], the pIC50 in data set [2] (Homo sapiens, LoVo, 65 h, read-out: IC50 with β-gluc.) is 3.95; in data set [2] (Homo sapiens, LoVo, 65 h, read-out: IC50 without β-gluc.) it was below 3.40.
In the case of `OCCN(CCO)c1nc(N2CCCCC2)c2nc(N(CCO)CCO)nc(N3CCCCC3)c2n1` [dipyridamole, reference compound], the pIC50 in data set [2] (Homo sapiens, LoVo, parent toxic compound tested alone, read-out: IC50 of the toxic compound tested alone) was 4.37.

As usually defined, the pIC50 is the IC50 on a negative log10 scale, so that one unit is a factor of ten.

The record behind these values is patent publication US5935995A, “Prodrugs for the therapy of tumors and inflammatory disorders” (Heochst Aktiengesellschaft, priority 1996, dated 1999).
